Source: the supplement of paper PMC10307832

Columns and labels:
Test in all cases: relative viability (nuclei count vs DMSO), 5 days (fraction); higher = more cells survive
HCC-44 = system: HCC-44
How it was run: (§1)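 Five library-drug doses in √10 steps were combined with a fixed anchor-drug dose, or a single drug was given alone, by pin tool to lung cancer cell lines in 1536-well plates the day after seeding. Nuclei were stained and counted after 5 days. Relative viability is the nuclei count in treated wells over that in vehicle wells, taken as the median of duplicate plates.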

NCI-H358 = system: NCI-H358
How it was run: as §1

NCI-H1975 = system: NCI-H1975
How it was run: as §1

NCI-H1437 = system: NCI-H1437
How it was run: as §1

NCI-H596 = system: NCI-H596
How it was run: as §1

LK-2 = system: LK-2
How it was run: as §1

201T = system: 201T
How it was run: as §1

NCI-H1792 = system: NCI-H1792
How it was run: as §1

SW 900 = system: SW 900
How it was run: as §1

EKVX = system: EKVX
How it was run: as §1

NCI-H838 = system: NCI-H838
How it was run: as §1

BEN = system: BEN
How it was run: as §1

HCC-15 = system: HCC-15
How it was run: as §1

NCI-H441 = system: NCI-H441
How it was run: as §1

A-427 = system: A-427
How it was run: as §1

NCI-H23 = system: NCI-H23
How it was run: as §1

HARA = system: HARA
How it was run: as §1

NCI-H1666 = system: NCI-H1666
How it was run: as §1

SK-MES-1 = system: SK-MES-1
How it was run: as §1

COR-L 105 = system: COR-L 105
How it was run: as §1

HCC-827 = system: HCC-827
How it was run: as §1

NCI-H650 = system: NCI-H650
How it was run: as §1

COR-L23 = system: COR-L23
How it was run: as §1

SMILES: O=C(O)c1ccc(-c2c[nH]c3ncc(-c4ccccc4)cc23)cc1C1CCCC1 + O=C(c1cc(Cc2n[nH]c(=O)c3ccccc23)ccc1F)N1CCN(C(=O)C2CC2)CC1 [Olaparib] (partner 8 µM)
- relative viability (HCC-44; first compound 0.04 µM): 0.998
- relative viability (HCC-44; first compound 0.1265 µM): 0.975
- relative viability (HCC-44; first compound 0.4 µM): 0.975
- relative viability (HCC-44; first compound 1.265 µM): 0.95
- relative viability (NCI-H358; first compound 0.04 µM): 0.603
- relative viability (NCI-H358; first compound 0.1265 µM): 0.657
- relative viability (NCI-H358; first compound 0.4 µM): 0.529
- relative viability (NCI-H358; first compound 1.265 µM): 0.275
- relative viability (NCI-H1975; first compound 0.04 µM): 0.724
- relative viability (NCI-H1975; first compound 0.1265 µM): 0.801
- relative viability (NCI-H1975; first compound 0.4 µM): 0.842
- relative viability (NCI-H1975; first compound 1.265 µM): 0.539
- relative viability (NCI-H1437; first compound 0.04 µM): 0.666
- relative viability (NCI-H1437; first compound 0.1265 µM): 0.633
- relative viability (NCI-H1437; first compound 0.4 µM): 0.556
- relative viability (NCI-H1437; first compound 1.265 µM): 0.279
- relative viability (NCI-H596; first compound 0.04 µM): 0.711
- relative viability (NCI-H596; first compound 0.1265 µM): 0.745
- relative viability (NCI-H596; first compound 0.4 µM): 0.749
- relative viability (NCI-H596; first compound 1.265 µM): 0.607
- relative viability (LK-2; first compound 0.04 µM): 0.734
- relative viability (LK-2; first compound 0.1265 µM): 0.641
- relative viability (LK-2; first compound 0.4 µM): 0.636
- relative viability (LK-2; first compound 1.265 µM): 0.648
- relative viability (201T; first compound 0.04 µM): 0.837
- relative viability (201T; first compound 0.1265 µM): 0.866
- relative viability (201T; first compound 0.4 µM): 0.827
- relative viability (201T; first compound 1.265 µM): 0.775
- relative viability (NCI-H1792; first compound 0.04 µM): 0.422
- relative viability (NCI-H1792; first compound 0.1265 µM): 0.655
- relative viability (NCI-H1792; first compound 0.4 µM): 0.446
- relative viability (NCI-H1792; first compound 1.265 µM): 0.405
- relative viability (SW 900; first compound 0.04 µM): 0.768
- relative viability (SW 900; first compound 0.1265 µM): 1.04
- relative viability (SW 900; first compound 0.4 µM): 0.702
- relative viability (SW 900; first compound 1.265 µM): 0.475
- relative viability (EKVX; first compound 0.04 µM): 0.88
- relative viability (EKVX; first compound 0.1265 µM): 0.931
- relative viability (EKVX; first compound 0.4 µM): 0.866
- relative viability (EKVX; first compound 1.265 µM): 0.657
- relative viability (NCI-H838; first compound 0.04 µM): 0.76
- relative viability (NCI-H838; first compound 0.1265 µM): 0.858
- relative viability (NCI-H838; first compound 0.4 µM): 0.732
- relative viability (NCI-H838; first compound 1.265 µM): 0.468
- relative viability (BEN; first compound 0.04 µM): 1.05
- relative viability (BEN; first compound 0.1265 µM): 1.06
- relative viability (BEN; first compound 0.4 µM): 1.09
- relative viability (BEN; first compound 1.265 µM): 0.944
- relative viability (HCC-15; first compound 0.04 µM): 0.747
- relative viability (HCC-15; first compound 0.1265 µM): 0.671
- relative viability (HCC-15; first compound 0.4 µM): 0.56
- relative viability (HCC-15; first compound 1.265 µM): 0.377
- relative viability (NCI-H441; first compound 0.04 µM): 0.606
- relative viability (NCI-H441; first compound 0.1265 µM): 0.563
- relative viability (NCI-H441; first compound 0.4 µM): 0.467
- relative viability (NCI-H441; first compound 1.265 µM): 0.265
- relative viability (A-427; first compound 0.04 µM): 0.706
- relative viability (A-427; first compound 0.1265 µM): 0.845
- relative viability (A-427; first compound 0.4 µM): 0.644
- relative viability (A-427; first compound 1.265 µM): 0.573
- relative viability (NCI-H23; first compound 0.04 µM): 0.34
- relative viability (NCI-H23; first compound 0.1265 µM): 0.33
- relative viability (NCI-H23; first compound 0.4 µM): 0.289
- relative viability (NCI-H23; first compound 1.265 µM): 0.271
- relative viability (HARA; first compound 0.04 µM): 0.878
- relative viability (HARA; first compound 0.1265 µM): 0.678
- relative viability (HARA; first compound 0.4 µM): 0.886
- relative viability (HARA; first compound 1.265 µM): 0.329
- relative viability (NCI-H1666; first compound 0.04 µM): 0.781
- relative viability (NCI-H1666; first compound 0.1265 µM): 0.742
- relative viability (NCI-H1666; first compound 0.4 µM): 0.741
- relative viability (NCI-H1666; first compound 1.265 µM): 0.678
- relative viability (SK-MES-1; first compound 0.04 µM): 0.716
- relative viability (SK-MES-1; first compound 0.1265 µM): 0.687
- relative viability (SK-MES-1; first compound 0.4 µM): 0.58
- relative viability (SK-MES-1; first compound 1.265 µM): 0.286
- relative viability (COR-L 105; first compound 0.04 µM): 0.723
- relative viability (COR-L 105; first compound 0.1265 µM): 0.682
- relative viability (COR-L 105; first compound 0.4 µM): 0.75
- relative viability (COR-L 105; first compound 1.265 µM): 0.647
- relative viability (HCC-827; first compound 0.04 µM): 0.559
- relative viability (HCC-827; first compound 0.1265 µM): 0.714
- relative viability (HCC-827; first compound 0.4 µM): 0.569
- relative viability (HCC-827; first compound 1.265 µM): 0.398
- relative viability (NCI-H650; first compound 0.04 µM): 0.372
- relative viability (NCI-H650; first compound 0.1265 µM): 0.432
- relative viability (NCI-H650; first compound 0.4 µM): 0.324
- relative viability (NCI-H650; first compound 1.265 µM): 0.256
- relative viability (COR-L23; first compound 0.04 µM): 0.311
- relative viability (COR-L23; first compound 0.1265 µM): 0.353
- relative viability (COR-L23; first compound 0.4 µM): 0.279
- relative viability (COR-L23; first compound 1.265 µM): 0.258
